Measured values published in patent US6274606A, “Methods of treating central nervous system disorders with aryl substituted olefinic amine compounds” (Targacept, Inc., priority 1998, dated 2001).

Assays:
Type in all cases: cell-based
[1] = target: T1, ganglionic receptors (Rattus norvegicus, UniProt P04757+P12392); test: cell-based; conditions: for Ganglion Effect (% nicotine): ganglionic cell preparations
T1 construct: endogenous in cells; host or cells: cell preparations derived from the adrenal gland

[2] = target: T2, muscle receptors (Homo sapiens, UniProt P02708+P07510+Q07001); conditions: muscle cell preparations
T2 construct: endogenous in cells; host or cells: cell preparations derived from muscle

[3] = test system: CNS nicotinic receptors; test: Determination of Dopamine Release
Procedure: As such, these compounds have the ability to cause relevant neurons to release or secrete acetylcholine, dopamine, and other neurotransmitters. […] Certain compounds of the present invention can provide secretion of dopamine in an amount which can exceed that elicited by an equal molar amount of (S)-(-)-nicotine.
Determination of Dolpamine Release
Dopamine release was measured using the techniques described in U.S. Pat. No. 5,597,919 to Dull et al., the subject matter of which is already incorporated herein by reference in its entirety. […] Reported EC50 is expressed in nM and Emax represent the amount released relative to nicotine.

T1 sequence (P04757 26-499): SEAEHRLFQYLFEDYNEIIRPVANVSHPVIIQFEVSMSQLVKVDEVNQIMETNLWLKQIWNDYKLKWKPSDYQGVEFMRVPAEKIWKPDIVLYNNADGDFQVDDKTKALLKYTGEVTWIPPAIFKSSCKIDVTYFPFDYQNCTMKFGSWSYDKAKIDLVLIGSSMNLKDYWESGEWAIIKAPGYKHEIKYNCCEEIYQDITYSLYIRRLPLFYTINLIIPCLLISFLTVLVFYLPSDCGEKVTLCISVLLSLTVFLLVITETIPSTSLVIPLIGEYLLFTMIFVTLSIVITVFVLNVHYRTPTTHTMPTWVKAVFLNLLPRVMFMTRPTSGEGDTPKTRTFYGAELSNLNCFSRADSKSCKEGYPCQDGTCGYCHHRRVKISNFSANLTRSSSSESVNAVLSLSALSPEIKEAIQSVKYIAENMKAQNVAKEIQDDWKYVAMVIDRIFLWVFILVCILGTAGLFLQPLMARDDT
T1 sequence (P12392 21-495): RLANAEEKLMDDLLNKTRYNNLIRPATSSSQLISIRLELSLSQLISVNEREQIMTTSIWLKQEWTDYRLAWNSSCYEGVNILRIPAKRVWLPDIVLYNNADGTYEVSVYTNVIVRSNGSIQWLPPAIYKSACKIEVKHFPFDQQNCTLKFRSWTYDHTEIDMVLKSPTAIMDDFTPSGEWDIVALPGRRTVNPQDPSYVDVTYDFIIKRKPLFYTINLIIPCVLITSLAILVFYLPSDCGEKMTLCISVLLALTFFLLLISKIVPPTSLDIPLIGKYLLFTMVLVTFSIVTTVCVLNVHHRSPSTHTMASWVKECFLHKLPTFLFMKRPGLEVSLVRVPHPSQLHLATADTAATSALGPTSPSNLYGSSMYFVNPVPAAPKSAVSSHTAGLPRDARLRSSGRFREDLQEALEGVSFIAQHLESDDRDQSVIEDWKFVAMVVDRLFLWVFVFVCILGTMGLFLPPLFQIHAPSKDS
T2 sequence (P07510 23-517): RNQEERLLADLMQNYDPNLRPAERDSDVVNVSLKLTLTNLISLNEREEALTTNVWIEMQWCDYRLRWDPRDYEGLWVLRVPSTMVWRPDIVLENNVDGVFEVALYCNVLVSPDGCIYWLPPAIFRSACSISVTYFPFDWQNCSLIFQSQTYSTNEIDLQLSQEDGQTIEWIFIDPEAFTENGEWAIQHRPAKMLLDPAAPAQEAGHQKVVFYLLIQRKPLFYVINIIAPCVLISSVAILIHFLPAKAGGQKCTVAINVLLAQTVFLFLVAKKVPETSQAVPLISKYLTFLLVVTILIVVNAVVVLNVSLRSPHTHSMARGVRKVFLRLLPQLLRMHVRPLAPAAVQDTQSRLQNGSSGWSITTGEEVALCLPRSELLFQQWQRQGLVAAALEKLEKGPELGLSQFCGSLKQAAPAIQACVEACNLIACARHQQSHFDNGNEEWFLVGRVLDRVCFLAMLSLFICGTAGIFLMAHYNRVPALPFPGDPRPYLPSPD
T2 sequence (P11230 24-501, further chain): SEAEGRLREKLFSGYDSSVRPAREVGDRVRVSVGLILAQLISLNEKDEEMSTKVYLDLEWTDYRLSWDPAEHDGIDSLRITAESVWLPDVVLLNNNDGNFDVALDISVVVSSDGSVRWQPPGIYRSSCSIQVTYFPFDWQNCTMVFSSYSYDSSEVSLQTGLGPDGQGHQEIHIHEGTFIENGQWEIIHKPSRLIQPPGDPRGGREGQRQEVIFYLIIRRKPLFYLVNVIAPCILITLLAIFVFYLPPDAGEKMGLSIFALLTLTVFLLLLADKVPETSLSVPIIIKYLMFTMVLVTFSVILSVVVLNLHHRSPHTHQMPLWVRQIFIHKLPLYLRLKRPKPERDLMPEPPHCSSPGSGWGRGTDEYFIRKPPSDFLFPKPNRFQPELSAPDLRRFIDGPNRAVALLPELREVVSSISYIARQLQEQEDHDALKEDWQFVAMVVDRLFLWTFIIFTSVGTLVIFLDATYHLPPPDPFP
T2 sequence (Q07001 22-517): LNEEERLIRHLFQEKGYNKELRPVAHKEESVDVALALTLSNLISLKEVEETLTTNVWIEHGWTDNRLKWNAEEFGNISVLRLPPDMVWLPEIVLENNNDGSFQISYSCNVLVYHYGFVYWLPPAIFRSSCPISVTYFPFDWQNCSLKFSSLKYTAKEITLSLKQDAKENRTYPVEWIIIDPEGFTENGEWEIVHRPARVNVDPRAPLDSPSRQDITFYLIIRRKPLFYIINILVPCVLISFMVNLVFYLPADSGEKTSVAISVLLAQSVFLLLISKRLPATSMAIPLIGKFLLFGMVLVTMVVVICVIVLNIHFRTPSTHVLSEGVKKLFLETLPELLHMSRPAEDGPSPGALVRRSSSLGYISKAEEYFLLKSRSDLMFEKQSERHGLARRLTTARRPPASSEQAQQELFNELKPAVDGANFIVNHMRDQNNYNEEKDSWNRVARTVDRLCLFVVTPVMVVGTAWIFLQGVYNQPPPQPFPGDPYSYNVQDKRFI
T2 sequence (P02708 21-457): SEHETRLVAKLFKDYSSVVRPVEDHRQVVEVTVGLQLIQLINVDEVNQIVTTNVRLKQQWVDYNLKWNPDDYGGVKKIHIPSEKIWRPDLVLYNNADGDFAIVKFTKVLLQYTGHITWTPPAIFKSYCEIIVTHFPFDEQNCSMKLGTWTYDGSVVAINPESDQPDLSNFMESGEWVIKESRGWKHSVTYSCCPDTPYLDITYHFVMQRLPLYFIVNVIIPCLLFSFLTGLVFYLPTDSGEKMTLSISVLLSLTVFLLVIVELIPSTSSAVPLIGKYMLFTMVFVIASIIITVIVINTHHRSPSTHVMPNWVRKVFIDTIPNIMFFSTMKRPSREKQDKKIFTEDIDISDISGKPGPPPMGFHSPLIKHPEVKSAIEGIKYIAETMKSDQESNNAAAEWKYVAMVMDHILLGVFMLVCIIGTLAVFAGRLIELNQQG

Row | Structure (SMILES) | Ganglion Effect (% nicotine) [1] | other results
1 | CNCC/C=C/c1cncc(OCc2ccccc2)c1 [Sample No. 1, (E)-N-Methyl-4-[3-(5-benzyloxypyridin)yl]-3-buten-1-amine] | 0 | –
2 | NCC/C=C/c1cncc(Br)c1 [Sample No. 2, (E)-4-[3-(5-Bromopyridin)yl]-3-buten-1-amine Hemifumarate] | 11 | Muscle Effect (% nicotine) [2]: 8; EC50 [3]: 2.4 µM; Dopamine Release Emax ([3]; percentage of release obtained with a concentration of (S)-(-)-nicotine resulting in maximal effects): 107%
3 | CNCC/C=C/c1cncc(Oc2ccccc2)c1 [Sample No. 3, (E)-N-Methyl-4-[3-(5-phenoxypyridin)yl]-3-buten-1-amine] | < 15 | –
4 | CNCC/C=C/c1cncc(OC(C)C)c1 [Sample No. 4, (E)-N-Methyl-4-[3-(5-isopropoxypyridin)yl]-3-buten-1-amine] | < 15 | –
5 | CNCC/C=C/c1cncc(COC)c1 [Sample No. 5, (E)-N-Methyl-4-[3-(5-methoxymethylpyridin)yl]-3-buten-1-amine] | 0 | –
6 | NCC/C=C/c1cccnc1.O=C(O)/C=C/C(=O)O.O=C(O)/C=C/C(=O)O [Sample No. 6, (E)-4-(3-pyridinyl)-3-buten-1-amine difumarate] | 23 | –
7 | CCOc1cncc(/C=C/CCNC)c1 [Sample No. 7, (E)-N-Methyl-4-[3-(5-ethoxypyridin)yl]-3-buten-1-amine Sesquifumarate] | – | Emax ([1]; read-out: Ganglion Effect (% nicotine)): < 15%
8 | CNCC/C=C/c1cncc(-c2ccccc2)c1 [Sample No. 8, (E)-N-Methyl-4-[3-(5-phenylpyridin)yl]-3-buten-1-amine] | 0 | –
9 | CNCC/C=C/c1cncc(N)c1 [Sample No. 9, (E)-N-methyl-4-[3-(5-aminopyridin)yl]-3-buten-1-amine] | 4 | –
